Results as given in ChEMBL document CHEMBL1201862, “PubChem BioAssay data set” (2004).
Active and inactive are the calls of the source.

What was measured:
[1] = target: T1, Tyrosine-protein phosphatase non-receptor type 11 (Homo sapiens, UniProt Q06124); test: SHP2 phosphatase inhibition, dose response, selectivity assay for STEP inhibitor project, biochemical (AID 602367); assay type: functional; details: read-out: IC50_Mean
T1 sequence (Q06124 whole entry): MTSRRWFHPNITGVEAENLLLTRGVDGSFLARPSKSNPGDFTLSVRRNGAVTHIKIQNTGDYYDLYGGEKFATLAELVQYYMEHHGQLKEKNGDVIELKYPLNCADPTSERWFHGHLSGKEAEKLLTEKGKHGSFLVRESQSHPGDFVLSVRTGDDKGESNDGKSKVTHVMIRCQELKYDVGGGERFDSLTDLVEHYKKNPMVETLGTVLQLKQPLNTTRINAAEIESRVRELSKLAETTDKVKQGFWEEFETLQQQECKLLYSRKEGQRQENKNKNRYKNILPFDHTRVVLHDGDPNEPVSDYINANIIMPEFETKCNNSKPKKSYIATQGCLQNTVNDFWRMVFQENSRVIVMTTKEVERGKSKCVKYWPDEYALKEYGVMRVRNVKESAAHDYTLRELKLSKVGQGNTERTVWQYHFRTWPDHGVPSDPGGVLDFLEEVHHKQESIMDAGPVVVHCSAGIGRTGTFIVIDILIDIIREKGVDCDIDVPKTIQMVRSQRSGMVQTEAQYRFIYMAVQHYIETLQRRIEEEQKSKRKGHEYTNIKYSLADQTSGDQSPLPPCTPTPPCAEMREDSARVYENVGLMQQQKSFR

[2] = target: T2, Tyrosine-protein phosphatase non-receptor type 5 (Homo sapiens, UniProt P54829); test: STEP phosphatase inhibitors, confirmation, biochemical, fluorescence intensity, uHTS hits (AID 602372); assay type: functional; details: read-out: IC50_Mean
T2 sequence (P54829 whole entry): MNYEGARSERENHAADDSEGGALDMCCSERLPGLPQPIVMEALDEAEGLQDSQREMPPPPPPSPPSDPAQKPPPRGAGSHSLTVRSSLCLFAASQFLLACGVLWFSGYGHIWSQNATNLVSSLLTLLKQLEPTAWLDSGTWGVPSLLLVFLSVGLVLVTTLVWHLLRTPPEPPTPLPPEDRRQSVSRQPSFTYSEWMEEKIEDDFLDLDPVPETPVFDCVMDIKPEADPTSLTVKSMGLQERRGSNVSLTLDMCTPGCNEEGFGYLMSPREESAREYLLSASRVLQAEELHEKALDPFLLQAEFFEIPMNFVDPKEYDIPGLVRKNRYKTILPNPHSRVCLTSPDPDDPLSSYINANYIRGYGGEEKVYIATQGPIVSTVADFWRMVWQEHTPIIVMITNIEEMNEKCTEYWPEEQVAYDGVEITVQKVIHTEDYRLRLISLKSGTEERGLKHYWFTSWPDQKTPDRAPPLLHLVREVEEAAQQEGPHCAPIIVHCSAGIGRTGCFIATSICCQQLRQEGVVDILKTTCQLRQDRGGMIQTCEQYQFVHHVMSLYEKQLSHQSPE

[3] = target: Dual specificity protein phosphatase 3 (Homo sapiens, UniProt P51452); test: VHR phosphatase inhibition, dose response, selectivity assay for STEP inhibitor project, biochemical (AID 602374); assay type: functional; details: read-out: IC50_Mean
[4] = target: T3, Histone-lysine N-methyltransferase NSD2 (Homo sapiens, UniProt O96028); assay type: biochemical
T3 sequence (O96028 whole entry): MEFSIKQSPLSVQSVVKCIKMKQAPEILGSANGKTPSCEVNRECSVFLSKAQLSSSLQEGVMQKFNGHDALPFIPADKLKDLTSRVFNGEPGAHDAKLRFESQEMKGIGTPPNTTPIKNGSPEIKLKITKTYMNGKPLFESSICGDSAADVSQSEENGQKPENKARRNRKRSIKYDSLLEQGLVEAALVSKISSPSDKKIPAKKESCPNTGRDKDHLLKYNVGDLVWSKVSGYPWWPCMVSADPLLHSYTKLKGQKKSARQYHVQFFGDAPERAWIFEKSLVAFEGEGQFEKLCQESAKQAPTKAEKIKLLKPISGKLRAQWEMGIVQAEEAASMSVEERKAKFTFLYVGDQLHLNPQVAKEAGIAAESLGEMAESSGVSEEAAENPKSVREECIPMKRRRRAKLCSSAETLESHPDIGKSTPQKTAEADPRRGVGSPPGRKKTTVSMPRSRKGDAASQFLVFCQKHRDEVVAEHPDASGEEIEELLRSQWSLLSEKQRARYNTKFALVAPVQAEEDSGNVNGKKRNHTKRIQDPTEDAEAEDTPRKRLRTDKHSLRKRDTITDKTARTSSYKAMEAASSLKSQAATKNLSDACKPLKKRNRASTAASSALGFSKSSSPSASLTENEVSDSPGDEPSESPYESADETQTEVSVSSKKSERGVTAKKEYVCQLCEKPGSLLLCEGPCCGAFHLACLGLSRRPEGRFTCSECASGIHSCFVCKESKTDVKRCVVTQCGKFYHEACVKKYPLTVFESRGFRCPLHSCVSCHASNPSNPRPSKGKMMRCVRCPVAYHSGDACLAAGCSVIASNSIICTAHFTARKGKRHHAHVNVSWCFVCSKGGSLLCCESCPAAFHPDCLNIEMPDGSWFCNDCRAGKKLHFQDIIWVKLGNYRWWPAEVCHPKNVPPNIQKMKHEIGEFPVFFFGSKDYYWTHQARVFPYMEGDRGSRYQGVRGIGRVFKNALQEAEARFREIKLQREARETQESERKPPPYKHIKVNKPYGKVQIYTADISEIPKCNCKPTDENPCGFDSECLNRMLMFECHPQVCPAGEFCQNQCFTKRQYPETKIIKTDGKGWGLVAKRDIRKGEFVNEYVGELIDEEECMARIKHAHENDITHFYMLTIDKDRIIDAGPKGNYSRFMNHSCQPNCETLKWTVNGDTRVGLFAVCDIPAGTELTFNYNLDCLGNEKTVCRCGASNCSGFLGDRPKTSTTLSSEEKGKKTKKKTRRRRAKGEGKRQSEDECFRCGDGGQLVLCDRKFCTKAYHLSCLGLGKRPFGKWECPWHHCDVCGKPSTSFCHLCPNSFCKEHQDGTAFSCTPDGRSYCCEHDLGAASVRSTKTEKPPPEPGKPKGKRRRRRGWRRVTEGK

[5] = target: T4, Ubiquitin-conjugating enzyme E2 N (Homo sapiens, UniProt P61088); assay type: functional;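 also: Dose-response confirmation in a TR-FRET assay detecting UBC13-driven polyubiquitin chain formation, inhibition measured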
T4 sequence (P61088 whole entry): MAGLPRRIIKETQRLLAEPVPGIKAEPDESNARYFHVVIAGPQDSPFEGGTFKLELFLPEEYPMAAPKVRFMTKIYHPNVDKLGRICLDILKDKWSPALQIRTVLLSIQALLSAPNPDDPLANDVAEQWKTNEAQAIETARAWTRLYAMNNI

[6] = target: T5, DNA repair protein RAD52 homolog (Homo sapiens, UniProt P43351); assay type: functional, biochemical
T5 sequence (P43351 whole entry): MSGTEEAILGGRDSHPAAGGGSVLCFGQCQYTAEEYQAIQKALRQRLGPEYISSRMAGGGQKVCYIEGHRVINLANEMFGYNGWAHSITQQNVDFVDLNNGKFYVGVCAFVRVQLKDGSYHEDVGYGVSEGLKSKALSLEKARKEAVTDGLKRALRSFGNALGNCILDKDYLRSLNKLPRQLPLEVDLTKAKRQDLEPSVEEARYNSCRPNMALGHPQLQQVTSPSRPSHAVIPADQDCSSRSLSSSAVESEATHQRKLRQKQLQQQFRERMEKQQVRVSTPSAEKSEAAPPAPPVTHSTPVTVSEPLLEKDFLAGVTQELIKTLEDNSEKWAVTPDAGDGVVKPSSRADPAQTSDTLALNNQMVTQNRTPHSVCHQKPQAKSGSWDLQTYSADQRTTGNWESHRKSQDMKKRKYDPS

[7] = NIH-3T3 fibroblast cytotoxicity, dose response, cytotoxicity control, cell-based, fluorescence, Alamar Blue, secondary assay (AID 2327); assay type: functional;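 also: NIH-3T3 mouse fibroblasts cultured with fluconazole at 8 µg/mL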
BJ [8] = test: cytotoxicity toward BJ-TERT fibroblasts, dose response, cell-based, RAS-independent, luminescence (AID 1933); assay type: functional; details: Homo sapiens
BJ [9] = test: cells; assay type: functional, cell-based; details: Homo sapiens
[10] = C. albicans growth with fluconazole, confirmation, fluorescence, retest (AID 2467); assay type: functional, cell-based
[11] = microbe, parasite or virus in culture; assay type: functional; details: Mycobacterium tuberculosis
[12] = target: T6, Serine/threonine-protein phosphatase (Candida dubliniensis (strain CD36 / CBS 7987 / NCPF 3949 / NRRLY-17841) (Yeast), UniProt B9W6M3); test: calcineurin pathway inhibitors in yeast reporter, dose response, S. cerevisiae, CDRE-lacZ, luminescence, secondary (AID 2388); assay type: functional, cell-based;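 also: yeast reporter cells carrying a calcineurin-responsive lacZ construct stimulated with calcium chloride; luminescent beta-galactosidase reporter signal in whole cells rather than isolated phosphatase activity; potency for inhibition where a drop in reporter signal means calcineurin blockade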
T6 sequence (B9W6M3 whole entry): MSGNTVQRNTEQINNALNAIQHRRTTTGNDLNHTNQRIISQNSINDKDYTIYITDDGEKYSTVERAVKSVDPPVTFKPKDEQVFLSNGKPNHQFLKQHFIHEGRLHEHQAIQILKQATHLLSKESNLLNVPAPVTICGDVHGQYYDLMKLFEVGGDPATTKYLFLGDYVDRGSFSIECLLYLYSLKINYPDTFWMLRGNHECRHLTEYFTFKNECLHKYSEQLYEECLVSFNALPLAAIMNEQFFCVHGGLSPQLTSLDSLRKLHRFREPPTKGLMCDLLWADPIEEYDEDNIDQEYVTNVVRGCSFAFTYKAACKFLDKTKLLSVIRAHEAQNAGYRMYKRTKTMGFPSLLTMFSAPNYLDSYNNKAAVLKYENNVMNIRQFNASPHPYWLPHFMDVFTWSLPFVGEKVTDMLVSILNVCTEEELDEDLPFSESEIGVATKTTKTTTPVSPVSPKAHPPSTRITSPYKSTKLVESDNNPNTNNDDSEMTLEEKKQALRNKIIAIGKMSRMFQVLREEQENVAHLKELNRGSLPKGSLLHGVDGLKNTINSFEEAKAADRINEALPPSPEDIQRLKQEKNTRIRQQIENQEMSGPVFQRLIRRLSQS

BJ [13] = test: cytotoxicity toward BJ-TERT-LT-ST fibroblasts, dose response, cell-based, RAS-independent, luminescence (AID 1935); assay type: functional; details: Homo sapiens;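 also: BJ fibroblasts immortalized with TERT plus LT and ST oncogenes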
[14] = cytotoxicity toward DRD oncogenic fibroblasts, dose response, cell-based, non-viral oncogenic, luminescence (AID 1934); assay type: functional; details: Homo sapiens
[15] = target: Heat shock protein HSP 90-alpha (Homo sapiens, UniProt P07900); assay type: functional, organism-based
INS1 = test: beta cell apoptosis inhibitors, cytokine rescue, dose response, luminescence, retest (AID 449756); assay type: functional, cell-based; details: Rattus norvegicus;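 also: cell death triggered by IL-1 beta plus TNF-alpha plus IFN-gamma mixture; protective hits raise ATP signal compared with cytokine alone wells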
[16] = target: ATP-dependent molecular chaperone HSP82 (Candida albicans (strain WO-1) (Yeast), UniProt C4YTQ8); test: loss of DOC-induced GRE-beta-galactosidase reporter signal, dose response, Hsp90 inhibitor project, S. cerevisiae, luminescence (AID 2400); assay type: functional, cell-based;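 also: beta-galactosidase luminescence from glucocorticoid response element reporter as proxy for Hsp90 function; inhibitor potency where signal loss means Hsp90 inhibition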
Sequence of ATP-dependent molecular chaperone HSP82 (C4YTQ8 whole entry): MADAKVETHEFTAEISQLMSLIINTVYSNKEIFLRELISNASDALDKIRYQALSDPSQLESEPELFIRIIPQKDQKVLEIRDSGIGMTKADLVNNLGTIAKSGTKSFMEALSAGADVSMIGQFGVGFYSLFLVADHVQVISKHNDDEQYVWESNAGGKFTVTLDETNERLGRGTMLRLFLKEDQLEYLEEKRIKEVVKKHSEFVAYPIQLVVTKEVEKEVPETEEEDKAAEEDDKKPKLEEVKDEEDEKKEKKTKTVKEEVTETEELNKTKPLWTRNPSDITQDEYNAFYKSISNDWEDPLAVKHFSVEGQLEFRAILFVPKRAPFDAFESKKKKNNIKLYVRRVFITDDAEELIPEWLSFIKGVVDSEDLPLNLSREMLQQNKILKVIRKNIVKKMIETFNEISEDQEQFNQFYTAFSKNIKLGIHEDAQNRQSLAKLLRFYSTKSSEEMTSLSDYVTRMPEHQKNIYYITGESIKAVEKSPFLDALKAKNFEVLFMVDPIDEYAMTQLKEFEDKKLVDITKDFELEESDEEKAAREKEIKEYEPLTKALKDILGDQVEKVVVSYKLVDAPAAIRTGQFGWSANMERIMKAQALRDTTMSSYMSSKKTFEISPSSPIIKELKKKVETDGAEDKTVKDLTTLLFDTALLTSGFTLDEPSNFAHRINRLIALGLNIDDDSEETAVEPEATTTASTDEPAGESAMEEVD

Sequence of Dual specificity protein phosphatase 3 (P51452 whole entry): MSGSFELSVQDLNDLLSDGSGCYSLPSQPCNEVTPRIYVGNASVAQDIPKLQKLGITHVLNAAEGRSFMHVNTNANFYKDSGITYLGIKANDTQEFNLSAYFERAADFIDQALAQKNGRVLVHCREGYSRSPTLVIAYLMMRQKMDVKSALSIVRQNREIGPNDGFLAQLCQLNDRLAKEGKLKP

## NS(=O)(=O)c1ccc(NC(=S)N2CCC(Cc3ccccc3)CC2)cc1
[1]
  IC50: 3.13 µM (active)
[2]
  IC50: 38.8 µM (inactive)
[3]
  IC50: 1.03 µM (active)

## C=CCNCCCCOc1ccccc1
[4]
  AC50: > 20 µM (inactive)

## CN(C)CCOC(=O)c1ccc2[nH]c3c(c2c1)CSCC3
[5]
  IC50: > 20 µM (inactive)
[6]
  AC50: 0.792 µM (active)

## O=C1NN(c2cccc(Br)c2)C(=O)/C1=C\c1ccc(N2CCOCC2)cc1
[1]
  IC50: 4.48 µM (active)
[2]
  IC50: 21.3 µM (inactive)
[3]
  IC50: 2.55 µM (active)

## C(C#CCCCCCCCCC[n+]1ccccc1)#CCCCCCCCCC[n+]1ccccc1
[7]
  EC50: > 150 µM (inactive)
BJ [8]
  EC50: 2.28 µM (inconclusive)
BJ [9]
  EC50: > 150 µM (inconclusive)
[10]
  EC50: 0.05 µM (active)
[11]
  CC50: > 40 µM (active)
[12]
  EC50: > 180 µM (inactive)
BJ [13]
  EC50: 6.02 µM (active)
[14]
  EC50: 5.68 µM (active)
[15]
  AC50: 3.58 µM (active)
INS1
  AC50: 1.67 µM (active)
[16]
  EC50: > 150 µM (inactive)

## CCN(CC)CCCNc1ncnc2scc(-c3ccc(F)cc3)c12
[4]
  AC50: > 20 µM (inactive)
